Data on 9 molecules can be found in patent publication US10919841B2, “Monoamine reuptake inhibitors” (Research Triangle Institute, priority 2009, dated 2021).

Like-named read-outs stand apart in the source and are kept apart here.

In assay [1] the target is T1, (h)DAT (Homo sapiens, UniProt Q01959).
T1 construct: expressed in transfected cells
The assay can be described thus: competition binding with [125I]RTI-55 at (h)DAT stably expressed in HEK293 cells. The following applies: mean ± standard error of three independent experiments.

The target in assay [2] is T2, (h)SERT (Homo sapiens, UniProt P31645).
T2 construct: expressed in transfected cells; host or cells: HEK293
T2 sequence (P31645 whole entry): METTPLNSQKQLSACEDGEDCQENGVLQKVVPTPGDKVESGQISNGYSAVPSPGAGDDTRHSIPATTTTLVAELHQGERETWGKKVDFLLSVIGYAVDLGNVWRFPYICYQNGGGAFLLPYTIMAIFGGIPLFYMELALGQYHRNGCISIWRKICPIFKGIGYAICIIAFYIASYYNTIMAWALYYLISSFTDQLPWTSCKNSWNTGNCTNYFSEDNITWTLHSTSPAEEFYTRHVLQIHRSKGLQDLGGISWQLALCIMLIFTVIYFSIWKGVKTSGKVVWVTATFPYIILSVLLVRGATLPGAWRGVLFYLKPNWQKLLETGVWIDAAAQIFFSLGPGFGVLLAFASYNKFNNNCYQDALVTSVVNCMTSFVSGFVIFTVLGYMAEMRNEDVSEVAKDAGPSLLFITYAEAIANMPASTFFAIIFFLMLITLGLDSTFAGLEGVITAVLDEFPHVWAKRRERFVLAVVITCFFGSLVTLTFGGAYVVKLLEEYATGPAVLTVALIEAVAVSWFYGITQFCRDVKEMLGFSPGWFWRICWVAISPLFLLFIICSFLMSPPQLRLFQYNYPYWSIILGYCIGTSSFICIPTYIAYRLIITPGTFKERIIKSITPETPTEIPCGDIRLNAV
The conditions noted are these: read-out: Binding, Ki SERT.

The target of assay [3] is T1, (h)DAT. Put plainly: block of [3H]dopamine reuptake in HEK-(h)DAT cells. Type of assay: cell-based.
Assay [4] has as its target T2, (h)SERT. Put plainly: block of [3H]serotonin reuptake in HEK-(h)SERT cells. Type of assay: cell-based.
The test system of assay [5] is mice. Put plainly: locomotor activity, 1-h observation protocol. It counts as in vivo. The following applies: Mus musculus; for Emax: 0.5 h, read-out: Locomotor Activity 1-Hour % Peak Cocaine; for ED50: dose to produce 50% of the compound's maximal effect, 1-h.
Assay [6] has as its system mice. The assay can be described thus: locomotor activity, 8-h time course protocol. It counts as in vivo. The following applies: for locomotor stimulant activity across the 1-h and 8-h protocols, in words: 1-h and 8-h tests compared; for Emax / ED50: Mus musculus; for Emax: read-out: Locomotor Activity 8-Hour % Peak Cocaine, percent of cocaine's maximal effect, 30 min period of maximum stimulation; for ED50: dose to produce 50% of the compound's maximal effect, 8-h, read-out: Locomotor Activity 8-Hour ED50; for Locomotor Activity 8-Hour Time, min Period, length: duration of locomotor activity; for Locomotor Activity 8-Hour Time, min Period, max: time period of maximum effect.

In assay [7] the target is T3, (h)NET (Homo sapiens, UniProt P23975). Put plainly: block of [3H]norepinephrine reuptake in HEK-(h)NET cells. The conditions noted are these: for IC50: read-out: IC50 for NE uptake inhibition, [3H]NE.
T3 sequence (P23975 whole entry): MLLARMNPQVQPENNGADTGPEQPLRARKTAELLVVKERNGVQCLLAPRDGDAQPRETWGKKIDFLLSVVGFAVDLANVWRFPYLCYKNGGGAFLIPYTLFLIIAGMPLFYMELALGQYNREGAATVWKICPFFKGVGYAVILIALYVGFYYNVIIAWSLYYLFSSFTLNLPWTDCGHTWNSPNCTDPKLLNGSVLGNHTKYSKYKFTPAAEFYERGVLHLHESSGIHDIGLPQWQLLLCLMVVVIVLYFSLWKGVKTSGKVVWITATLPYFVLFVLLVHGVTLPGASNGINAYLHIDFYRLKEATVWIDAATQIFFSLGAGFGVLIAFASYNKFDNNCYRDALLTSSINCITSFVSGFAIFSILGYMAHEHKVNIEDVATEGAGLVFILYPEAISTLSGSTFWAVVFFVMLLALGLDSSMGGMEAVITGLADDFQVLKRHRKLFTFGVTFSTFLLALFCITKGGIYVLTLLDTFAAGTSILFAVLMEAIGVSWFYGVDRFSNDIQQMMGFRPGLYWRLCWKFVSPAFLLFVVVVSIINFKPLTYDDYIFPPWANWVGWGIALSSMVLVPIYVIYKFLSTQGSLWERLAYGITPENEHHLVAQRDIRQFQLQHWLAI
The subject of assay [8] is rats. Put plainly: cocaine discrimination (2-lever operant), i.p. administration.
Assay [9] deals with rats. Put plainly: cocaine discrimination time-course study, oral administration. The conditions noted are these: for ED50: Rattus norvegicus, po, 0.75 h; for generalization to cocaine: p.o.
In assay [10] the target is serotonin transporter (Rattus norvegicus, UniProt P31652). The assay can be described thus: 5-HT releasing/substrate activity using rat brain synaptosomes.
serotonin transporter, sequence (P31652 whole entry): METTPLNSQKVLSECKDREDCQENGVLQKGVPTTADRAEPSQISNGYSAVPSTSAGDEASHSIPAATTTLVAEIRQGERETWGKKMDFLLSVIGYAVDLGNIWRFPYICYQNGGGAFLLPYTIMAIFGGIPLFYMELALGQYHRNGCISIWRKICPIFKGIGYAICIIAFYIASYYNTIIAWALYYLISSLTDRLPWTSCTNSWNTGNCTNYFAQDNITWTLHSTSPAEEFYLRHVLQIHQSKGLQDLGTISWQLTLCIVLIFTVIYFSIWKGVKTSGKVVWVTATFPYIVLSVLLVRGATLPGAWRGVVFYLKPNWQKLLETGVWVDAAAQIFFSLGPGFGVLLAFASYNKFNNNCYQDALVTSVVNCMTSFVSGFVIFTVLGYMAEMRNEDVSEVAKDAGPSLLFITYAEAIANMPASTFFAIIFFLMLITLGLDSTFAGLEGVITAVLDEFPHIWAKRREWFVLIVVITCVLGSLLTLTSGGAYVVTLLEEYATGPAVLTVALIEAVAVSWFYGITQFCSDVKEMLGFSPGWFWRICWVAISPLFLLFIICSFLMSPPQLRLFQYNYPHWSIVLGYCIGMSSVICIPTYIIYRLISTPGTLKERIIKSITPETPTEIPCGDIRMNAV
Assay [11] has as its target T3, (h)NET. The assay can be described thus: competition binding with [125I]RTI-55 at (h)NET stably expressed in HEK293 cells. The following applies: read-out: Binding, Ki NET; mean ± standard error of three independent experiments.
Where [12] appears, read: Rattus norvegicus, ip, read-out: % cocaine lever responding.

T1 sequence (Q01959 whole entry): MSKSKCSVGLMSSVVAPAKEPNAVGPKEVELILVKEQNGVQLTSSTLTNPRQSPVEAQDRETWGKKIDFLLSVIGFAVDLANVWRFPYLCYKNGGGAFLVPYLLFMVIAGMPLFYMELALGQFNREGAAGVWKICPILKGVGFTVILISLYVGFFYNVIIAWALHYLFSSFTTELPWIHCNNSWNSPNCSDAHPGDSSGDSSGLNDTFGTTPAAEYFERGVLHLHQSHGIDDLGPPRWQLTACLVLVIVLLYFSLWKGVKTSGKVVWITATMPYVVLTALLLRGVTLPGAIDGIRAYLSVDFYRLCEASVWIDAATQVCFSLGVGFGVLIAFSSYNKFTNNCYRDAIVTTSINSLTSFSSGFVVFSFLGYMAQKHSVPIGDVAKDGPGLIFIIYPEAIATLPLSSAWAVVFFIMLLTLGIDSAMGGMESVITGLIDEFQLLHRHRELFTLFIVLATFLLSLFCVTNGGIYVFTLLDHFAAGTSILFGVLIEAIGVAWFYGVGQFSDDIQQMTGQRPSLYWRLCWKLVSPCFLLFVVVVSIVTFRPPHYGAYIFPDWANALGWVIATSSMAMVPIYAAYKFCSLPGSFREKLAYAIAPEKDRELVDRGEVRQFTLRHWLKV

By Ki is commonly meant the equilibrium dissociation constant of an inhibitor or competing ligand from its target. By IC50 is commonly meant the point on the concentration scale where inhibition reaches its midpoint. By ED50 is commonly meant the dose that gives a 50% effect, or the effect in half of the subjects. The term EC50 denotes the concentration at which the effect is half-maximal. The low end stands for greater potency, the high end for weaker potency. For the molecule `CC(NC1CC1)C(=O)c1cccc(Cl)c1` (stereo not shown) [Compound 2x, 2-(N-Cyclopropylamino)-3′-chloropropiophenone], the Ki in assay [1] was 1.15 µM; in assay [2], 3.42 µM; in assay [11], 4 µM. Besides, the IC50 is 0.265 µM in assay [3] ([3H]DA, read-out: IC50 for DA uptake inhibition); 3.18 µM in assay [4] (read-out: IC50 for 5HT uptake inhibition); 2.15 µM in [7]. In addition, the “times more potent than bupropion as DA uptake inhibitor” value in assay [3] (relative to bupropion) worked out at 3.6 times. Moreover, the Emax in [5] and in assay [6] was 94% each time. For the same molecule, the ED50 in [5] amounted to 14.7 mg/kg; in assay [6] it was 14.7 mg/kg; in [9], 13.3 mg/kg. Also, the “locomotor stimulant activity across the 1-h and 8-h protocols, in words” value in [6] is reported as “strong stimulants in both studies”. Further, the “Locomotor Activity 8-Hour Time, min Period, length” value in [6] was found to be 350 min. The “Locomotor Activity 8-Hour Time, min Period, max” value in [6] lay within 0 to 30 min. For the same molecule, in assay [8] (setting [12]), the responders at 5 mg/kg was 6%. The responders at 10 mg/kg in assay [8] (setting [12]) was found to be 67%. In addition, the responders at 25 mg/kg in assay [8] (setting [12]) stood at 34%. For the same molecule, the responders at 50 mg/kg in [8] (setting [12]) stood at 17%. Also, the responders at 100 mg/kg in [8] (setting [12]) is 17%. In assay [8] (i.p., 5 mg/kg), the “cocaine-appropriate responding (partial generalization)” value was found to be 67%. In addition, the cocaine-appropriate responding in assay [8] (i.p., 10 mg/kg) is 67%. Moreover, the “response rate, in words” value in assay [8] (i.p., dose range given in the value) is “affected response rate at 25-100 mg/kg”. The generalization to cocaine entry in [9] (45 min, 10 mg/kg) is on record as “partial generalization”; in [9] (45 min, 25 mg/kg) it was “partial generalization”; in assay [9] (90 min, 25 mg/kg), “full generalization”; in assay [9] (180 min, 25 mg/kg), “full generalization”. Besides, in assay [10], the EC50 was 0.283 µM.
`CC(NC1CC1)C(=O)c1ccc(Cl)c(Cl)c1` (stereo not shown): the EC50 in assay [10] worked out at 0.148 ± 0.035 µM.
Same read-out and setting: the value for `COc1cccc(C(=O)C(C)NC2CC2)c1` (stereo not shown) was 0.676 ± 0.197 µM.
Consider `Cc1ccc(C(=O)C(C)NC2CC2)cc1` (stereo not shown), for which, in assay [10], the concentration giving a half-maximal response (EC50) was determined as 0.707 ± 0.069 µM.
Same read-out and setting: the value for `Cc1ccc(C(=O)C(C)NC2CC2)cc1Cl` (stereo not shown) was 0.139 ± 0.03 µM.
Consider `CCCC(NC(C)(C)C)C(=O)c1ccc(Cl)c(Cl)c1` (stereo not shown) [Compound 2bb, 2-(tert-Butylamino)-3′,4′-dichloropentanophenone], for which the figures for the Ki in assay [1], in assay [2] and in [11] were 0.0437 µM, 0.842 µM and 0.52 µM, respectively. Besides, the “DA uptake inhibition, in words” value in assay [3] is listed as “slightly lower IC50 values than 2j”. The IC50 in [3] (mean ± standard error of three independent experiments, read-out: Uptake, IC50 [3H]DA) came to 0.084 µM; in assay [4] (read-out: Uptake, IC50 [3H]5-HT), 1.58 µM; in assay [7] it was 0.043 µM. In addition, the figures for the Emax in assay [5] and in assay [6] were 49% and 100%, respectively. Besides, the ED50 is 18.1 mg/kg in assay [5]; 35 mg/kg in assay [6]; 6.95 mg/kg in assay [8] (Rattus norvegicus, ip, read-out: Full Generalization ED50); 17.3 mg/kg in [9]. For the same molecule, the “locomotor stimulant activity across the 1-h and 8-h protocols, in words” value in assay [6] is reported as “moderate activity in the 1-h test with increased activity in the time-course study”. Moreover, the “Locomotor Activity 8-Hour Time, min Period, length” value in assay [6] amounted to 470 min. Moreover, the “Locomotor Activity 8-Hour Time, min Period, max” value in assay [6] lay within 0 to 30 min. Besides, the “times better as NE uptake inhibitors than bupropion” value in assay [7] (relative to bupropion) stood at 34 times. In assay [8] (setting [12]), the responders at 5 mg/kg amounted to 1%. For the same molecule, in [8] (setting [12]), the responders at 10 mg/kg was 17%. Moreover, the responders at 25 mg/kg in assay [8] (setting [12]) worked out at 10%.
Molecule `CC(NC1CC1)C(=O)c1ccc(Cl)cc1` (stereo not shown) showed an EC50 in assay [10] of 2.7 ± 0.314 µM.
On the same count and under the same terms, then `Cc1cccc(C(=O)C(C)NC2CC2)c1` (stereo not shown), with 0.89 ± 0.063 µM; and `CC(NC1CC1)C(=O)c1cccc(Br)c1` (stereo not shown), with 0.383 ± 0.056 µM.
